Measurements as given in patent US20060014730A1, “Ansamycin formulations and methods for producing and using same” (Conforma Therapeutics Corporation, priority 2002, published 2006).
Where two headings read alike, the source gives them in different places.

How the values were obtained:
[1] = tested on: adult patients with advanced solid tumors; details: daily 1-hour infusion for 5 days every three weeks; cited from earlier work
[2] = cited from earlier work; for Cmax: human, in vivo
[3] = Dissolution of 17-AAG in Phospholipon in Miglyol solution without ethanol; type: physicochemical; details: lower melting point form crystallized from isopropanol rather than ethanol; room temperature
From the text: Alternatively, 17-AAG can be brought […], adding to this the drug, e.g., 17-AAG, and mixing, e.g., by stirring and/or sonication.

[4] = Drug concentration achieved in the emulsion; type: physicochemical
[5] = adult patients, daily 1-hour infusion for 5 days every three weeks

C=CCNC1=C2C[C@@H](C)C[C@H](OC)[C@H](O)[C@@H](C)/C=C(\C)[C@H](OC(N)=O)[C@@H](OC)/C=C\C=C(/C)C(=O)NC(=CC1=O)C2=O [Compound 17-AAG, 17-allylamino-geldanamycin]
maximum tolerated dose (MTD) [1]: 40 mg/m^2
clearance (mean+/-SD) [2, 5]: 41.0 ± 13.5 L/h
steady-state volume (mean+/-SD) [2, 5]: 86.6+/−34.6 L/m^2
terminal half-life (mean+/-SD) [2, 5]: 2.5 ± 0.5 h
Cmax ([2]; 40 mg/m2): 1860 nM
Cmax ([2]; 56 mg/m2): 3170 nM
dissolution into the Phospholipon in Miglyol solution [3]: more readily can be dissolved
concentration achieved in the oil phase alone ([4]; oil phase alone): 20000 to 30000 µg/mL
concentration achieved overall ([4]; whole emulsion): ≤ 3000 µg/mL
